Experimental data reported in US20260007612A1, “Novel Ionizable Cationic Lipids” (Vivasor, Inc., priority 2022, published 2026).

Tests used:
[1] = Lipid nanoparticle characterization (size, PDI, zeta potential, encapsulation efficiency); format: physicochemical; details: Fresh samples; LNP of named lipid:DSPC:Cholesterol:GM020=50:10:38.5:1.5 (DS-001 25:10:38.5:1.5); 250 μg mRNA
Method: Lipid nanoparticles were prepared with the following compositions: • ALC-0315:DSPC:Cholesterol:GM020=50:10:38.5:1.5 (and buffer) (positive control) • TU-001:DSPC:Cholesterol:GM020=50:10:38.5:1.5 (and buffer) • TU-002:DSPC:Cholesterol:GM020=50:10:38.5:1.5 (and buffer) • TU-003:DSPC:Cholesterol:GM020=50:10:38.5:1.5 (and buffer) • TU-004:DSPC:Cholesterol:GM020=50:10:38.5:1.5 (and buffer) • TU-005:DSPC:Cholesterol:GM020=50:10:38.5:1.5 (and buffer) • TU-006:DSPC:Cholesterol:GM020=50:10:38.5:1.5 (and buffer) • TU-007:DSPC:Cholesterol:GM020=50:10:38.5:1.5 (and buffer) • TU-008:DSPC:Cholesterol:GM020=50:10:38.5:1.5 (and buffer) • TU-009:DSPC:Cholesterol:GM020=50:10:38.5:1.5 (and buffer) • BAE-001:DSPC:Cholesterol:GM020=50:10:38.5:1.5 (and buffer) • BAA-001:DSPC:Cholesterol:GM020=50:10:38.5:1.5 (and buffer) • DS-001:DSPC:Cholesterol:GM020=25:10:38.5:1.5 (and buffer) • KT-001:DSPC:Cholesterol:GM020=50:10:38.5:1.5 (and buffer) • Where buffer is water, Trehalose, Tris Base, sodium chloride. DSPC is 1,2-distearoyl-sn-glycero-3-phosphocholine. GM020 is DMG-PEG (1,2-Dimyristoyl-rac-glycero-3-methylpolyoxyethylene).
Table 1 summarizes the lipid nanoparticle characterization with respect to various parameters including nanoparticle size (Z avg), polydispersity index (PDI), charge (Zeta potential), encapsulation efficiency and yield.

female Balb/c mice = assay: In vivo efficacy of SARS-CoV-2 Spike mRNA in lipid nanoparticle formulation: serum anti-Spike IgG by ELISA; details: FIGS. 1C-D, intramuscular, 28 days following injection

## CCCCCCCCC(CCCCCC)C(=O)OCCCCCCN(CCCCO)CCCCCCOC(=O)C(CCCCCC)CCCCCCCC (stereo not shown) [ALC-0315, reference compound]
[1]
  Encapsulation Efficiency: 83.16%
  PDI: 0.223
  Z Avg.: 78.67 nm
  Zeta Potential: −4.74 mV

## CCCCCCCCC(CCCCCC)C(=O)OCCCCCCN(CCCCO)CCC(=O)OCCCCOC(=O)CCN(CCCCO)CCCCCCOC(=O)C(CCCCCC)CCCCCCCC (stereo not shown) [BAE-001]
[1]
  Encapsulation Efficiency: 83.32%
  PDI: 0.141
  Z Avg.: 111.7 nm
  Zeta Potential: −0.28 mV

## CCCCCCCCC(CCCCCC)C(=O)OCCCCCCN(CCCCCCOC(=O)C(CCCCCC)CCCCCCCC)CCCCNC(=O)OCCSSCCOC(=O)NCCCCN(CCCCCCOC(=O)C(CCCCCC)CCCCCCCC)CCCCCCOC(=O)C(CCCCCC)CCCCCCCC (stereo not shown) [DS-001]
[1]
  Encapsulation Efficiency: 84.50%
  PDI: 0.12
  Z Avg.: 63.0 nm
  Zeta Potential: −3.74 mV

## CCCCCCCCCC1(CCCCCC)OCC(CCCCN(CCCCO)CCCCC2COC(CCCCCC)(CCCCCCCCC)O2)O1 (stereo not shown) [KT-001]
Female Balb/c mice
  amount of anti-Spike antibody (of SARS-CoV-2) produced in mice: largest amounts
[1]
  Encapsulation Efficiency: 80.60%
  PDI: 0.08
  Z Avg.: 84.7 nm
  Zeta Potential: −3.30 mV

## CCCCCCCCC(CCCCCC)C(=O)OCCCN(CCCOC(=O)C(CCCCCC)CCCCCCCC)C(=S)NCCCN1CCOCC1 (stereo not shown) [TU-002]
[1]
  Encapsulation Efficiency: 80.64%
  PDI: 0.133
  Z Avg.: 76.99 nm
  Zeta Potential: −2.55 mV

## CCCCCCCCC(CCCCCC)C(=O)OCCCN(CCCOC(=O)C(CCCCCC)CCCCCCCC)C(=S)NCCCN1CCCCC1C (stereo not shown) [TU-003]
[1]
  Encapsulation Efficiency: 90.47%
  PDI: 0.23
  Z Avg.: 73.29 nm
  Zeta Potential: −0.56 mV

## CCCCCCCCC(CCCCCC)C(=O)OCCCN(CCCOC(=O)C(CCCCCC)CCCCCCCC)C(=S)NCCCN1CCN(C)CC1 (stereo not shown) [TU-004]
[1]
  Encapsulation Efficiency: 72.53%
  PDI: 0.24
  Z Avg.: 79.77 nm
  Zeta Potential: −1.27 mV

## CCCCCCCCC(CCCCCC)C(=O)OCCCN(CCCOC(=O)C(CCCCCC)CCCCCCCC)C(=S)NCCCN (stereo not shown) [TU-005]
[1]
  Encapsulation Efficiency: 97.66%
  PDI: 0.282
  Z Avg.: 176.9 nm
  Zeta Potential: −0.842 mV

## CCCCCCCCC(CCCCCC)C(=O)OCCCN(CCCOC(=O)C(CCCCCC)CCCCCCCC)C(=S)NCCCN(CC)CC (stereo not shown) [TU-006]
[1]
  Encapsulation Efficiency: 81.48%
  PDI: 0.278
  Z Avg.: 68.84 nm
  Zeta Potential: −0.642 mV

## CCCCCCCCC(CCCCCC)C(=O)OCCCN(CCCOC(=O)C(CCCCCC)CCCCCCCC)C(=S)NCCCN(CCC)CCC (stereo not shown) [TU-007]
[1]
  Encapsulation Efficiency: 78.96%
  PDI: 0.156
  Z Avg.: 63.30 nm
  Zeta Potential: −2.68 mV

## CCCCCCCCC(CCCCCC)C(=O)OCCCN(CCCOC(=O)C(CCCCCC)CCCCCCCC)C(=S)NCCCNC(C)C (stereo not shown) [TU-008]
[1]
  Encapsulation Efficiency: 97.75%
  PDI: 0.253
  Z Avg.: 64.64 nm
  Zeta Potential: −1.07 mV

## CCCCCCCCC(CCCCCC)C(=O)OCCCN(CCCOC(=O)C(CCCCCC)CCCCCCCC)C(=S)NCCCN(CCCC)CCCC (stereo not shown) [TU-009]
[1]
  Encapsulation Efficiency: 80.76%
  PDI: 0.188
  Z Avg.: 64.82 nm
  Zeta Potential: −4.40 mV
